Earlier results on 1 compound are cited in US20070135444A1, “Treatment of neuroblastoma” (priority 2002, published 2007).

For the data set the following is noted: pediatric phase I trial; no maximal dose tolerated reached up to this dose.

For `CS(=O)(=O)O.Cc1ccc(NC(=O)c2ccc(CN3CCN(C)CC3)cc2)cc1Nc1nccc(-c2cccnc2)n1` [SALT I], the maximal dose tolerated is reported as over 570 mg/m^2/day.
